The molecules below were run on L02 (assay: Hepatoprotective activity in human L02 cells assessed as reduction in D-galactosamine-induced cell damage at 0.1 to 1000 uM pre-incubated at 37 degC for 24 hrs before D-galactosamine challenge for 24 hrs by SRB method). Settings: Homo sapiens, L02; read-out: EC50; call rule not given here.
Type: functional, cell-based

Row | SMILES | EC50 [µM]
1 | CC(C)(O)[C@H]1CC[C@@](C)([C@H]2[C@@H](O)[C@H](O)[C@@]3(C)[C@@H]4CC[C@H]5C(C)(C)[C@@H](O[C@@H]6OC[C@@H](O)[C@H](O)[C@H]6O)CC[C@@]56C[C@@]46C[C@H](O)[C@]23C)O1 | 70.8
2 | CC(C)(O)[C@H]1CC[C@@](C)([C@H]2[C@@H](O)[C@H](O)[C@@]3(C)[C@@H]4CC[C@H]5C(C)(C)[C@@H](O[C@@H]6OC[C@@H](O)[C@H](O)[C@H]6O)CC[C@@]56C[C@@]46C[C@@H](O)[C@]23C)O1 (relative stereo) | 61.6
3 | CC(C)(O)[C@H]1CC[C@@](C)([C@H]2C(=O)[C@H](O)[C@@]3(C)[C@@H]4CC[C@H]5C(C)(C)[C@@H](O[C@@H]6OC[C@@H](O)[C@H](O)[C@H]6O)CC[C@@]56C[C@@]46C[C@H](O)[C@]23C)O1 (relative stereo) | 78.6
4 | CC(=O)O[C@H]1[C@H](OC(C)=O)[C@@]2(C)[C@@H]3CC[C@H]4C(C)(C)[C@@H](O)CC[C@@]45C[C@@]35C[C@@H](O)[C@]2(C)[C@H]1[C@]1(C)CC[C@H](C(C)(C)O)O1 (mixture of isomers) | 10.7
5 | CC(C)(O)[C@H]1CC[C@@](C)([C@H]2[C@@H](O)[C@H](O)[C@@]3(C)[C@@H]4CC[C@H]5C(C)(C)[C@@H](O[C@@H]6OC[C@@H](O)[C@H](O)[C@H]6O)CC[C@@]56C[C@@]46C[C@H](O)[C@]23CO)O1 (relative stereo) | 48.9

Same assay, conditions: l02

Row | SMILES | EC50
6 | CC(=O)OC[C@]12CC[C@@]34C[C@@]35CC[C@H](O[C@@H]3OC[C@@H](O)[C@H](O)[C@H]3O)C(C)(C)[C@@H]5CC[C@H]4[C@]1(C)[C@@H](O)[C@H](OC(C)=O)[C@@H]2[C@]1(C)CC[C@H](C(C)(C)O)O1 | Not Active
7 | CC(C)(O)[C@H]1CC[C@@](C)([C@H]2C(=O)[C@H](O)[C@@]3(C)[C@@H]4CC[C@H]5C(C)(C)[C@@H](O)CC[C@@]56C[C@@]46C[C@H](O)[C@]23C)O1 (relative stereo) | Not Active
8 | CC(=O)O[C@H]1[C@H](O)[C@H]([C@]2(C)CC[C@H](C(C)(C)O)O2)[C@@]2(C)CC[C@@]34C[C@@]35CC[C@H](O[C@@H]3OC[C@@H](O)[C@H](O)[C@H]3O)C(C)(C)[C@@H]5CC[C@H]4[C@]12C | Not Active

— ChEMBL document CHEMBL3608205, “Eight new cycloartane triterpenoids from Beesia calthifolia with hepatoprotective effects against D-galactosamine induced L02 cell damage” (Bioorg Med Chem Lett, 2015)
